This passage reports IC50 results from patent US20230348475A1, “IMIDAZOPYRIDAZINE AND IMIDAZOPYRAZINE COMPOUNDS AS INHIBITORS OF CDK7” (THE TRANSLATIONAL GENOMICS RESEARCH INSTITUTE, priority 2020, published 2023).

A word on the IC50: it is the concentration that gives 50% inhibition.

For assay [1], the target named is CDK7/CycH/MAT1 (Homo sapiens, UniProt P50613). Put plainly: Kinase Glo (ADP-Glo) biochemical assay, CDK7. To be noted: CDK7/CycH/MAT1 40 ng, ATP 1 μM, 60 minutes at RT, luminescence. As for the experimental part:
Materials: • Assay Buffer: 50 mM HEPES, 3 mM MgCl2, 3 mM MnCl2, 1 mM DTT, 3 μM Na3VO4, pH 7.5 • Substrate RB • CTF Peptide (ProQinase #: 0040-0000-6) • Enzymes • CDK7/CycH/MAT1 (ProQinase #: 0366-0360-4) • ADP-Glo™ Assay (Promega #: V9101) • ATP: 10 mM • ADP-Glo™ Reagent • Kinase Detection Reagent • 384-well white assay plates
A ten point serial dilution of compound was prepared at 5X concentration in assay buffer with the final assay concentrations starting at 30 μM, 10 μM, 3 μM, 1 μM . . . 0 μM. Enzyme, substrate, and ATP were used at 40 ng, 200 ng (or 400 ng)* and 1 μM, respectively. The assay plate was set up by mixing the components in a total reaction volume of 10 μL per well. The plate was centrifuged gently for 10 seconds and incubated at room temperature (RT) for 60 minutes in the dark. The ADP-Glo Reagent and kinase detection reagent were added and incubated as recommended. The reaction was quantified by measuring luminescence on the Perkin Elmer Envision plate reader.

Assay [2] deals with MiaPaCa2 pancreatic cancer cell line. Put plainly: Cell viability assay (Cell Titer Glo), MiaPaCa2. It is filed as cell-based. To be noted: Homo sapiens, MIA PaCa-2; Table 7a; pancreatic cancer cell line, 72 hour incubation. As for the experimental part:
(§1) Materials: • Cell Lines (Treated according to ATCC guidelines) • Cell Titer Glo (Promega Cat #G7572) • DMSO • 96-well White Tissue Culture Treated Plates (Perkin Elmer Cat #60005680)
(§2) Cells were seeded in a white 96-well tissue culture treated plate at a density of 1500 cells in 90 μL of media per well and allowed to settle overnight. A ten point serial dilution of drugs was prepared at 10×concentration in media with the final assay concentrations starting at 30 μM, 10 μM, 3 μM, 1 μM, 0.3 μM . . . 0 μM. A dilution of DMSO was included as a control. The assay was set up by adding 10 μL of the corresponding drug to each well in duplicate, followed by a 72 hour incubation at 37° C., 5% CO2. Cell viability was quantified by adding 90 μL of Cell Titer Glo to each well and incubating at room temperature for 10 minutes. The reaction was quantified by measuring luminescence using the Envision Plate Reader. Data was analyzed using Graphpad Prism 7 software.
A general note: In ATP-based viability assays light output follows the ATP content of the culture.

For assay [3], the system named is HPAC pancreatic cancer cell line. Put plainly: Cell viability assay (Cell Titer Glo), HPAC. Type of assay: cell-based. To be noted: Homo sapiens, HPAC; Table 7a; pancreatic cancer cell line, 72 hour incubation. As for the experimental part:
as §1, §2

The test system of assay [4] is Kasumi1 leukemia cancer cell line. As to the kind of experiment: Cell viability assay (Cell Titer Glo), Kasumi1. To be noted: Homo sapiens, Kasumi 1, Table 7a, 72 hour incubation. It is filed as cell-based. As for the experimental part:
as §1, §2

For assay [5], the system named is A2780 ovarian cancer cell line. As to the kind of experiment: Cell viability assay (Cell Titer Glo), A2780. It is filed as cell-based. To be noted: Homo sapiens, A2780, Table 7a, 72 hour incubation. As for the experimental part:
as §1, §2

The test system of assay [6] is MDA-MB-231 breast cancer cell line. As to the kind of experiment: Cell viability assay (Cell Titer Glo), MDA-MB-231. It is filed as cell-based. To be noted: Homo sapiens, MDA-MB-231; Table 7a; breast cancer cell line, 72 hour incubation. As for the experimental part:
as §1, §2

The subject of assay [7] is A673 Ewingsarcoma cell line. As to the kind of experiment: Cell viability assay (Cell Titer Glo), A673. It is filed as cell-based. To be noted: Homo sapiens, A673, Table 7a, 72 hour incubation. As for the experimental part: as §1, §2

The structures appear in SMILES notation. Where a name gives a salt, the structure may show the parent alone.

CDK7/CycH/MAT1, sequence (P50613 whole entry): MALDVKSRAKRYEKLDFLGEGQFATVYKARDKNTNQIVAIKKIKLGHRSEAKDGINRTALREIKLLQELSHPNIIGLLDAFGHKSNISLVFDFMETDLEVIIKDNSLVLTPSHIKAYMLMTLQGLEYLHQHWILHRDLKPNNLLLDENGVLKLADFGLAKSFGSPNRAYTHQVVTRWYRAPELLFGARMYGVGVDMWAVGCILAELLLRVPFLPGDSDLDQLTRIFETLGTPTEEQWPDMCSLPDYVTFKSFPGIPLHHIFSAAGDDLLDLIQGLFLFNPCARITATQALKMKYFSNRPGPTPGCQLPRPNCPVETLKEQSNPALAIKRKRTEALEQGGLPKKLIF
CDK7/CycH/MAT1, sequence (P51946 whole entry partner): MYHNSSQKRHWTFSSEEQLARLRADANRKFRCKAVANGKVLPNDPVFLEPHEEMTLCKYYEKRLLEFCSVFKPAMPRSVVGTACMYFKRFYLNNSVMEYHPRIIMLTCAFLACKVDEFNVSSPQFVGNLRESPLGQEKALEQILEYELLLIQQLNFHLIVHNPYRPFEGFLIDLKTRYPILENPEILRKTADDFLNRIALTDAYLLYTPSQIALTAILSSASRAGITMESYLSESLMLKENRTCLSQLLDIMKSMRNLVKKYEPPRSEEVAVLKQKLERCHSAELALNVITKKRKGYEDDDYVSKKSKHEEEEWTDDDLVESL
CDK7/CycH/MAT1, sequence (P51948 whole entry partner): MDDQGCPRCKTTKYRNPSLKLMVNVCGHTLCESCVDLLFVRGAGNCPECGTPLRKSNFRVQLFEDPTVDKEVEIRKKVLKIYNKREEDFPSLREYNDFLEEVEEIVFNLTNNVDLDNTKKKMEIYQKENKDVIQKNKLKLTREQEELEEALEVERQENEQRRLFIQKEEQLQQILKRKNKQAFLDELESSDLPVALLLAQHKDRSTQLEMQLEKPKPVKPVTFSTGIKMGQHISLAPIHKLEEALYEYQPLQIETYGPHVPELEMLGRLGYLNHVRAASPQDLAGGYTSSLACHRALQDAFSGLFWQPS

`CC(C)c1cnc2c(NCc3ccccc3C(F)(F)F)cc(SC3CCNCC3F)nn12` (centres unmarked) [Compound 77, 6-((3-fluoropiperidin-4-yl)thio)-3-isopropyl-N-(2-(trifluoromethyl)benzyl)imidazo[1,2-b]pyridazin-8-amine hydrochloride]: the IC50 in assay [1] is less than 100 nM; in assay [2] it was 1 to 5 µM; in assay [3] it was 1 to 5 µM; in assay [4] it was 1 to 5 µM; in assay [5], 1 to 5 µM.

`CC(C)c1cnc2c(NCc3ccccc3OC(F)(F)F)cc(SC3CCNCC3)nn12` [Compound 33]: the IC50 in assay [1] was less than 100 nM; in assay [2] it was less than 1 µM; in assay [3] it was less than 1 µM; in assay [4], 1 to 5 µM; in assay [6] it was 1 to 5 µM; in assay [5], less than 1 µM. In assay [7], this compound yielded an IC50 of less than 1 µM.

For the compound `c1ccc(CNc2cc(SC3CCCNC3)nn3c(C4CC4)cnc23)cc1` (centres unmarked) [Compound 22, N-benzyl-3-cyclopropyl-6-(piperidin-3-ylthio)imidazo[1,2-b]pyridazin-8-amine formate], the IC50 was less than 100 nM in assay [1]; 1 to 5 µM in assay [2]; 1 to 5 µM in assay [3]; 1 to 5 µM in assay [4]; 1 to 5 µM in assay [6]; 1 to 5 µM in assay [5]. In assay [7], this compound came in with an IC50 of 1 to 5 µM.

Regarding `COc1ccccc1CNc1cc(SC2CCNCC2F)nn2c(C(C)C)cnc12` (centres unmarked) [Compound 73, 6-((3-fluoropiperidin-4-yl)thio)-3-isopropyl-N-(2-methoxybenzyl)imidazo[1,2-b]pyridazin-8-amine hydrochloride], the IC50 in assay [1] was less than 100 nM; in assay [2] it was 1 to 5 µM; in assay [3], 1 to 5 µM; in assay [4], 1 to 5 µM; in assay [5], 1 to 5 µM.

As for `CC(C)c1cnc2c(NCc3ccccc3OC(F)(F)F)cc(NC3CCNCC3)nn12` [Compound 38, hydrochloride], the IC50 in assay [1] is less than 100 nM; in assay [2], 1 to 5 µM; in assay [3], 1 to 5 µM; in assay [4], 1 to 5 µM; in assay [6], 1 to 5 µM; in assay [5] it was 1 to 5 µM. The same compound yielded an IC50 in assay [7] of 1 to 5 µM.

As for `CC(C)c1cnc2c(NCc3ccccc3N(C)C)cc(SC3CCNCC3)nn12` [Compound 64, N-(2-(dimethylamino)benzyl)-3-isopropyl-6-(piperidin-4-ylthio)imidazo[1,2-b]pyridazin-8-amine hydrochloride], the half-maximal inhibitory concentration (IC50) in assay [1] is less than 100 nM; in assay [2] it was less than 1 µM; in assay [3] it was 1 to 5 µM; in assay [4] it was less than 1 µM; in assay [7] it was less than 1 µM.

With `CC(C)c1cnc2c(NCc3ccc(F)cc3F)cc(SC3CCNCC3)nn12` [Compound 56, N-(2,4-difluorobenzyl)-3-isopropyl-6-(piperidin-4-ylthio)imidazo[1,2-b]pyridazin-8-amine hydrochloride], the IC50 in assay [1] is less than 100 nM; in assay [2], less than 1 µM; in assay [3], less than 1 µM; in assay [4], 1 to 5 µM; in assay [5], less than 1 µM.

Regarding `CC(C)c1cnc2c(NCc3ccccc3OC(F)(F)F)cc(OC3CCNCC3F)nn12` (centres unmarked) [Compound 70, 6-((3-fluoropiperidin-4-yl)oxy)-3-isopropyl-N-(2-(trifluoromethoxy)benzyl)imidazo[1,2-b]pyridazin-8-amine hydrochloride], the IC50 is less than 100 nM in assay [1]; 1 to 5 µM in assay [2]; 1 to 5 µM in assay [3]; 1 to 5 µM in assay [4]; 1 to 5 µM in assay [5].

Turning to `COc1ccccc1CNc1nc(SC2CCNCC2)cn2c(C(C)C)cnc12` [Compound 51, 3-isopropyl-N-(2-methoxybenzyl)-6-(piperidin-4-ylthio)imidazo[1,2-a]pyrazin-8-amine formate], the IC50 in assay [1] was less than 100 nM; in assay [2], 1 to 5 µM; in assay [3] it was 1 to 5 µM; in assay [6], greater than 5 µM; in assay [5], 1 to 5 µM.

Consider `CC(C)c1cnc2c(NCc3ccccc3C(F)(F)F)cc(SC3CCNCC3)nn12` [Compound 53, 3-isopropyl-6-(piperidin-4-ylthio)-N-(2-(trifluoromethyl)benzyl)imidazo[1,2-b]pyridazin-8-amine hydrochloride], for which the concentration for half-maximal inhibition (IC50) was less than 100 nM in assay [1]; less than 1 µM in assay [2]; less than 1 µM in assay [3]; 1 to 5 µM in assay [6]; less than 1 µM in assay [5].

For `CC(C)c1cnc2c(NCc3ccccc3-n3cccn3)cc(SC3CCCNC3)nn12` (centres unmarked) [Compound 63, N-(2-(1H-pyrazol-1-yl)benzyl)-3-isopropyl-6-(piperidin-3-ylthio)imidazo[1,2-b]pyridazin-8-amine hydrochloride], the IC50 in assay [1] is less than 100 nM; in assay [2] it was less than 1 µM; in assay [3], less than 1 µM; in assay [4], less than 1 µM; in assay [7], 1 to 5 µM.

With `CC(C)c1cnc2c(NCc3ccccc3)cc(S[C@@H]3CCCNC3)nn12` (single isomer, unassigned) [Compound 41, hydrochloride], the IC50 in assay [1] is less than 100 nM; in assay [2], 1 to 5 µM; in assay [3] it was 1 to 5 µM; in assay [6], 1 to 5 µM; in assay [5], 1 to 5 µM; in assay [7], 1 to 5 µM.

On to `Fc1cccc(Nc2cc(O[C@@H]3CCNC3)nn3c(C4CC4)cnc23)c1` [Compound 6, (R)-3-cyclopropyl-N-(3-fluorophenyl)-6-(pyrrolidin-3-yloxy)imidazo[1,2-b]pyridazin-8-amine], for which the IC50 was less than 100 nM in assay [1]; 1 to 5 µM in assay [2]; less than 1 µM in assay [3]; 1 to 5 µM in assay [4]; 1 to 5 µM in assay [5].

Regarding `CN1CCC(Oc2cc(NCc3ccccc3)c3ncc(C4CC4)n3n2)CC1` [Compound 15, N-benzyl-3-cyclopropyl-6-((1-methylpiperidin-4-yl)oxy)imidazo [1,2-b] pyridazin-8-amine], the IC50 in assay [1] was 100 to 1000 nM.

In turn, `CC(C)c1cnc2c(N[C@@H](C)c3ccccc3)cc(NC3CCNCC3)nn12` [Compound 29, (S)-3-isopropyl-N8-(1-phenylethyl)-N6-(piperidin-4-yl)imidazo[1,2-b]pyridazine-6,8-diamine hydrochloride] gave an IC50 in assay [1] of 100 to 1000 nM.

`CC(C)c1cnc2c(N[C@@H](C)c3ccccc3)cc(SC3CCCNC3)nn12` (stereo partly drawn) [Compound 28, 3-isopropyl-N-((S)-1-phenylethyl)-6-(piperidin-3-ylthio) imidazo [1,2-b]pyridazin-8-amine hydrochloride] showed a half-inhibitory concentration (IC50) in assay [1] of less than 100 nM.

In the case of `CC(C)c1cnc2c(NCc3ccccc3OC(F)F)cc(SC3CCNCC3)nn12` [Compound 66, N-(2-(difluoromethoxy)benzyl)-3-isopropyl-6-(piperidin-4-ylthio)imidazo[1,2-b]pyridazin-8-amine hydrochloride], the IC50 was less than 100 nM in assay [1]; less than 1 µM in assay [2]; less than 1 µM in assay [3]; 1 to 5 µM in assay [4]; less than 1 µM in assay [7].

Take `CC(C)c1cnc2c(NCc3ccccc3-n3cccn3)cc(SC3CCNCC3)nn12` [Compound 62, N-(2-(1H-pyrazol-1-yl)benzyl)-3-isopropyl-6-(piperidin-4-ylthio)imidazo[1,2-b]pyridazin-8-amine hydrochloride]: the IC50 in assay [1] is less than 100 nM; in assay [2], less than 1 µM; in assay [3] it was 1 to 5 µM; in assay [4], less than 1 µM; in assay [7], 1 to 5 µM.

The compound `COc1ccccc1CNc1cc(SC2CCNCC2(F)F)nn2c(C(C)C)cnc12` (centres unmarked) [Compound 75, 6-((3,3-difluoropiperidin-4-yl)thio)-3-isopropyl-N-(2-methoxybenzyl)imidazo[1,2-b]pyridazin-8-amine hydrochloride] returned an IC50 in assay [1] of 100 to 1000 nM.
